Data on 24 molecules can be found in paper PMC10833105 (Journal of medicinal chemistry, 2023).

Where two headings read alike, the source gives them in different places.

Series [1] addresses GABAAR. The settings on record: 3H-flunitrazepam, rat brain extract; for IC50: read-out: GABAAR binding IC50.
Series [2] is described as follows: in vitro. The settings on record: PAMPA, pH 7.4.
Series [3] deals with female A/J mice. Briefly: Methacholine-induced airway hyperresponsiveness, double chamber plethysmograph. The series is classed as in vivo, mouse. The conditions noted are these: nebulized 7.2 mg/kg, then five nebulized methacholine challenges, vs vehicle.
The test system of series [4] is guinea pig airway smooth muscle. Briefly: Ex vivo airway smooth muscle relaxation, substance P-contracted tracheal rings. The conditions noted are these: 25 μM, vs vehicle.
Series [5] concerns GABAAR. The settings on record: read-out: GABAAR binding IC50; reported earlier; cited from earlier work.
Series [6] is described as follows: Microsomal stability phase 1. The series is classed as in vitro ADME. The conditions noted are these: human liver S9, NADPH, 10 μM compound.
A short description of series [7]: Metabolic stability phase 2. In kind it is in vitro ADME. The settings on record: human liver S9, UDP-glucuronic acid, 10 μM compound.
For series [8], the system named is female Swiss Webster mice. The settings on record: oral dosing up to 1000 mg/kg; cited from earlier work.
The conditions of series [9]: cited from earlier work.
Series [10] can be described thus: Microsomal stability phase 1. In kind it is in vitro ADME. The conditions noted are these: mouse liver S9, NADPH, 10 μM compound.
A short description of series [11]: Metabolic stability phase 2. In kind it is in vitro ADME. The conditions noted are these: mouse liver S9, UDP-glucuronic acid, 10 μM compound.
Series [12] relates to female Swiss Webster mice. Briefly: Rotarod sensorimotor inhibition. The series is classed as in vivo, mouse. The conditions noted are these: diazepam 8 mg/kg. (In general: Falling from the rotarod earlier than controls is read as motor impairment.)

On to `CC1(C)N=C(c2ccccc2F)c2cc(Br)ccc2NC1=O` [3a, 7-Bromo-5-(2-fluorophenyl)-3,3-dimethyl-1,3-dihydro-2H-benzo[e][1,4]diazepin-2-one], for which the IC50 (in general, the concentration that inhibits the measured activity by half) in [1] came to 1250 nM.

For `O=C1Nc2ccc(Br)cc2C(c2ccccc2F)=NC12CC2` [3c], the IC50 in [1] turned out to be 42 nM.

`O=C1Nc2ccc(Br)cc2C(c2ccccc2F)=NC12CCC2` [3d]: in [2], the Papp (as a rule, a coefficient for how fast a substance crosses the barrier) was 3.16 ×10⁻⁶ cm/s. Moreover, the IC50 in [1] amounted to 2040 nM.

As for `O=C1Nc2ccc(Br)cc2C(c2ccccc2F)=NC12CCCC2` [3e], the Papp in [2] was 0.158 ×10⁻⁶ cm/s. Further, the “GABAAR binding (in words)” value in [1] is on record as “no significant binding”.

As to `O=C1Nc2ccc(Br)cc2C(c2ccccc2F)=NC12CCCCC2` [3f], the Papp in series [2] is 0.0794 ×10⁻⁶ cm/s. In addition, the “GABAAR binding (in words)” value in series [1] is on record as “no significant binding”.

`O=C1Nc2ccc(Cl)cc2C(c2ccccc2F)=NC12CC2` [3g]: in [1], the IC50 worked out at 665 nM.

Take `CCOC(=O)c1ncn2c1C(C)(C)N=C(c1ccccc1F)c1cc(Br)ccc1-2` [4a]: in series [1], the “GABAAR binding (in words)” value was “Some activity was retained” and the IC50 turned out to be 733 nM.

Consider `CCOC(=O)c1ncn2c1C1(CC1)N=C(c1ccccc1F)c1cc(Br)ccc1-2` [4c, Ethyl 8-bromo-6-(2-fluorophenyl)spiro[benzo[f]imidazo[1,5-α][1,4]diazepine-4,1′-cyclopropane]-3-carboxylate], for which the IC50 in [1] came out at 87 nM.

In the case of `CCOC(=O)c1ncn2c1C1(CCC1)N=C(c1ccccc1F)c1cc(Br)ccc1-2` [4d], the Papp in [2] was 6.31 ×10⁻⁶ cm/s. In addition, in series [1], the “GABAAR binding (in words)” value is “Some activity was retained” and the IC50 came out at 859 nM.

`CCOC(=O)c1ncn2c1C1(CCCC1)N=C(c1ccccc1F)c1cc(Br)ccc1-2` [4e] had a Papp in series [2] of 1.58 ×10⁻⁶ cm/s. Further, the “GABAAR binding (in words)” value in [1] is listed as “not active”.

In series [2], `CCOC(=O)c1ncn2c1C1(CCCCC1)N=C(c1ccccc1F)c1cc(Br)ccc1-2` [4f] showed a Papp of 1 ×10⁻⁶ cm/s. In addition, in [1], the “GABAAR binding (in words)” value was “not active” and the IC50 was found to be 6220 nM.

With `CCOC(=O)c1ncn2c1C1(CC1)N=C(c1ccccc1F)c1cc(Cl)ccc1-2` [4g], in series [2], the Papp was 2.51 ×10⁻⁶ cm/s. Besides, the “GABAAR binding (in words)” value in [1] was “weak GABAAR ligands”.

In turn, `CCOC(=O)c1ncn2c1C1(CC1)N=C(c1ccccc1F)c1cc(C3CC3)ccc1-2` [4i, Ethyl 8-Cyclopropyl-6-(2-fluorophenyl)spiro-[benzo[f]imidazo[1,5-α][1,4]diazepine-4,1′-cyclopropane]-3-carboxylate] had a Papp in [2] of 12.6 ×10⁻⁶ cm/s.

As to `CC1(C)N=C(c2ccccc2F)c2cc(Br)ccc2-n2cnc(C(=O)O)c21` [5a], in series [3], the “effect on specific airway resistance (sRaw)” value is “little to no change of sRaw values”. Further, in [1], the “GABAAR binding (in words)” value is “did not show strong GABAAR binding” and the IC50 amounted to 4050 nM.

Take `O=C(O)c1ncn2c1C1(CC1)N=C(c1ccccc1F)c1cc(Br)ccc1-2` [5c, 8-Bromo-6-(2-fluorophenyl)-spiro[benzo[f]imidazo[1,5-α][1,4]diazepine-4,1′-cyclopropane]-3-carboxylic Acid]: the “relaxation of constricted airway smooth muscle” value (“relaxation” for short) in series [4] (at 30 min) is reported as “significant relaxation”. Further, in [1], the IC50 is 9 nM.

In the case of `O=C(O)c1ncn2c1C1(CCC1)N=C(c1ccccc1F)c1cc(Br)ccc1-2` [5d], in [4] (at 60 min), the “relaxation” value was “weak airway smooth muscle relaxation”. For the same molecule, in series [1], the IC50 was found to be 1830 nM.

Take `O=C(O)c1ncn2c1C1(CCCCC1)N=C(c1ccccc1F)c1cc(Br)ccc1-2` [5f]: the “relaxation” value in series [4] (at 30 min) is listed as “significant relaxation”.

For `O=C(O)c1ncn2c1C1(CC1)N=C(c1ccccc1F)c1cc(Cl)ccc1-2` [5g], in [1], the “GABAAR binding (in words)” value is listed as “weak GABAAR ligands”.

Turning to `C#Cc1ccc2c(c1)C(c1ccccc1F)=NC1(CC1)c1c(C(=O)O)ncn1-2` [5h, 8-Ethynyl-6-(2-fluorophenyl)spiro[benzo[f]-imidazo[1,5-α][1,4]diazepine-4,1′-cyclopropane]-3-carboxylic Acid], the “relaxation” value in series [4] (at 30 min) was “significant relaxation”. In series [1], the IC50 was 59 nM.

In the case of `O=C(O)c1ncn2c1C1(CC1)N=C(c1ccccc1F)c1cc(C3CC3)ccc1-2` [5i], in series [1], the “GABAAR binding (in words)” value is recorded as “weak GABAAR ligands” and the IC50 came to 1830 nM.

As to `O=C(O)c1ncn2c1C1(CC1)N=C(c1ccccc1F)c1ccccc1-2` [5j, 6-(2-Fluorophenyl)spiro[benzo[f]imidazo[1,5-α][1,4]diazepine-4,1′-cyclopropane]-3-carboxylic Acid], in [4] (at 30 min), the “relaxation” value is “significant relaxation”. Also, in series [1], the IC50 was 289 nM.

As to `C[C@@H]1N=C(c2ccccc2F)c2cc(Br)ccc2-n2cnc(C(=O)O)c21` [MIDD0301S], the IC50 in series [5] was 25 nM.

In the case of `C[C@H]1N=C(c2ccccc2F)c2cc(Br)ccc2-n2cnc(C(=O)O)c21` [MIDD0301], the “remaining percentage of parent compound after 2 h, phase 1” value in [6] is listed as 98 ± 4%; in series [10], 110 ± 14%. Also, in series [5], the IC50 was 26 nM. For the same molecule, the entries for the “remaining percentage of parent compound after 2 h, phase 2” value in [7] and in [11] were 77 ± 3% and 73 ± 8%, respectively. The “sensorimotor inhibition on rotarod” value in series [8] is on record as “absence of sensorimotor inhibition”. Also, the “aqueous solubility (in words)” value in series [9] (pH values between 3 and 6) is on record as “significantly decreased”; in series [9] (strong acidic, neutral and basic conditions), “excellent solubility”.

For the molecule `CN1C(=O)CN=C(c2ccccc2)c2cc(Cl)ccc21` [diazepam], the “sensorimotor inhibition on rotarod” value in [12] was “rapid and significant loss of sensorimotor coordination”.
